Experimental data as given in patent US20110008465A1, “SESQUITERPENE FORMULATIONS, KITS AND METHODS OF USE THEREOF” (priority 2007, published 2011).
Marks after values point to notes of the source that are not given here.

Tests used:
Lewis lung carcinoma [1] = assay: In vivo potentiating effect of Formulation A on paclitaxel against Lewis lung cancer-bearing mice; conditions: for CTW (estimated weight) / T/C (estimated weight) / T/C (real weight) / TGI (estimated weight) / TGI (real weight) / Tumor weight (real weight): i.v. day 1 to 4, day 18
Description: (§1) Cells: The Lewis lung carcinoma cell line was used (#CRL-1642, lot #4372266, ATCC). […] Cells were then harvested with up and down only. Cells were counted using a hemacytometer and resuspended in DMEM medium without SVF.
Mice: 6-weeks old C57BL/6 male mice were used Charles Rivers Inc., St-Constant, QC). […] The mice of each group (n=10) were treated with a volume of 100 μL containing saline, Formulation A (see Example 5), paclitaxel or combination of the Formulation A with paclitaxel.
(§2) Inoculation: 100 μL of a solution containing 1×10^7 cells/mL were inoculated subcutaneously in each mouse.
Treatment: Lewis lung carcinoma cells were inoculated subcutaneous on C57BL/6 mice on day 0. The potentiating effect of the Formulation A combined with paclitaxel was evaluated against Lewis lung carcinoma-bearing mice (C57BL/6). The mice of each group (n=10) were treated with a volume of 100 μL containing saline, Formulation A, paclitaxel or a combination of Formulation A with paclitaxel in doses presented in Table 10 below: The treatments were administered intravenous on day 1 to 4. The length and the width of tumor were measured with calliper on day 8 to day 18. In the end of the experiment (day 18), the tumors were extracted and weighed.
Values of p<0.05 were considered statistically significant.
(b) Tumor weight (TW): The TW of each tumor was measured on day 18 after the sacrifice of each mouse. TW values were averaged within each group. […] Values of p<0.05 were considered statistically significant.

[2] = test system: MDA-MB-231 (breast cancer); assay: Chou and Talalay combination assay with beta-caryophyllene; assay type: cell-based, human; conditions: anticancer drug in combination with beta-caryophyllene; Chou and Talalay CI; 48 h
Description: (§3) Each solution was prepared fresh and use within 1 hour after preparation.
(§4) Cells were then harvested using trypsine-EDTA. Cells were counted using a hemocytometer and resuspended in DMEM+10% FBS medium.
(§5) Proliferation assay: Increasing concentrations of the anticancer agents and/or beta-caryophyllene were added to 96-well plate (100 μL per well). The final concentration of solvent in the culture medium was maintained below 0.5% (volume/volume) to avoid solvent toxicity.
(§6) The cells were incubated for 48 h at 37° C. and 5% CO2. Cytotoxicity was assessed using the resazurin reduction test (O'Brien et al., 2000). Fluorescence was measured on an automated 96-well Fluoroskan Ascent FI™ plate reader (Labsystems) using excitation and emission wavelengths of 530 nm and 590 nm, respectively. Resazurin was then removed.
(§7) Microplates were frozen at −20° C. overnight. Plates were thawed, a volume of 100 μl of 0.01% SDS in water was added to the wells, the plates were shaken at room temperature for 3 hours and then frozen once more at −20° C. overnight. […] Plates were shaken in the dark (at room temperature) for at least 2 hours, and fluorescence was measured on an automated 96-well Fluoroskan Ascent FI™ plate reader (Labsystems) using excitation and emission wavelengths of 360 nm and 460 nm, respectively.
(§8) Results were analyzed using the Chou and Talalay method (9) and may be interpreted as follow: Cl>1 represents an antagonist effect of beta-caryophyllene with the corresponding anticancer agent; Cl=1 represents an additive effect of beta-caryophyllene with the corresponding anticancer agent; Cl<1 represents a potentiating effect of beta-caryophyllene with the corresponding anticancer agent.

DLD-1 (colon cancer) = assay: as above; assay type: cell-based, human; conditions: anticancer drug in combination with beta-caryophyllene; Chou and Talalay CI; 48 h
Description: as §3, §4, §5, §6, §7, §8

PA-1 (ovary cancer) = assay: as above; assay type: cell-based, human; conditions: anticancer drug in combination with beta-caryophyllene; Chou and Talalay CI; 48 h
Description: as §3, §4, §5, §6, §7, §8

MCF-7 (breast cancer) = assay: as above; assay type: cell-based, human; conditions: anticancer drug in combination with beta-caryophyllene; Chou and Talalay CI; 48 h
Description: as §3, §4, §5, §6, §7, §8

A-549 (lung cancer) = assay: as above; assay type: cell-based, human; conditions: anticancer drug in combination with beta-caryophyllene; Chou and Talalay CI; 48 h
Description: as §3, §4, §5, §6, §7, §8

[3] = test system: Panc 05.04 (pancreas cancer); assay: as above; assay type: cell-based, Human; conditions: in combination with beta-caryophyllene in ethanol (40-150 mM), 48 h
Description: Agent: […] Each solution was prepared fresh and use within 1 hour after preparation. 5 μL of each test article were added to 1 mL of culture medium for a final concentration of 0.5% of solvent and this concentration have no toxic effect on cells. Cells: The Panc 05.04 cell line was used. Cells were harvested using trypsine-EDTA. […] Cells were plated in 96-well microplates (BD Falcon) at a density of 7.5×10^3 cells per well for Chou and Talalay assay in 100 μL of culture medium and were allowed to adhere for 24 hours before treatment. Proliferation assay: Increasing concentrations of the anticancer agents and/or beta-caryophyllene were added to 96-well plate (100 μL per well). The final concentration of solvent in the culture medium was maintained below 0.5% (volume/volume) to avoid solvent toxicity. […] The cells were incubated for 48 h at 37° C. and 5% CO2. Cytotoxicity was assessed using the resazurin reduction test (8). […] Resazurin was then removed. Data analysis: Results were analyzed using the Chou and Talalay method (9) and may be interpreted as follow: […]

MEL-2 (human melanoma) = assay: as above; assay type: cell-based; conditions: anticancer drug in combination with beta-caryophyllene; Chou and Talalay CI; 48 h
Description: as §3, §4, §5, §6, §7, §8

B16 (murine melanoma) = assay: as above; assay type: cell-based; conditions: anticancer drug in combination with beta-caryophyllene; Chou and Talalay CI; 48 h
Description: as §3, §4, §5, §6, §7, §8

[4] = test system: U-251 (human glioblastoma); assay: as above; assay type: cell-based; conditions: anticancer drug in combination with beta-caryophyllene; Chou and Talalay CI; 48 h
Description: as §3, §4, §5, §6, §7, §8

[5] = test system: GL-261 (murine glioblastoma); assay: as above; assay type: cell-based; conditions: anticancer drug in combination with beta-caryophyllene; Chou and Talalay CI; 48 h
Description: as §3, §4, §5, §6, §7, §8

Lewis lung carcinoma [6] = assay: In vivo potentiating effect of Formulation A on Taxotere against Lewis lung cancer-bearing mice; conditions: i.v. days 1-4, day 18
Description: as §1
Mice: 6-weeks old C57BL/6 male mice were used (Charles Rivers Inc., St-Constant, QC).
as §2
The mice of each group (n=10) were treated with a volume of 100 μL containing saline, Formulation A of Example 5 above (hereinafter referred to as Formulation A), Taxotere™ or a combination of Formulation A with Taxotere™ in doses presented in Table 7 below: […]
Values of p<0.05 were considered statistically significant. The length and the width of tumor were measured with calliper on day 10 to day 18.

[7] = Toxicity of Formulation A and/or Taxotere treatments (body weight) on Lewis lung cancer-bearing mice; conditions: for Loss of weight > 20% (n = 10): day 1 to day 8
Description: The toxicity of the treatments described in Table 7 above was determined using the body weight of mice.

CC(=O)O[C@H]1C(=O)[C@@]2(C)[C@H]([C@H](OC(=O)c3ccccc3)[C@]3(O)C[C@H](OC(=O)[C@H](O)[C@@H](NC(=O)c4ccccc4)c4ccccc4)C(C)=C1C3(C)C)[C@]1(OC(C)=O)CO[C@@H]1C[C@@H]2O [Paclitaxel, paclitaxel]
CTW (estimated weight) (Lewis lung carcinoma [1]; paclitaxel 10 mg/kg): 568 ± 155 mg | T/C (estimated weight) (Lewis lung carcinoma [1]; paclitaxel 10 mg/kg): 81% | T/C (real weight) (Lewis lung carcinoma [1]; paclitaxel 10 mg/kg): 87% | TGI (estimated weight) (Lewis lung carcinoma [1]; paclitaxel 10 mg/kg): 19% | TGI (real weight) (Lewis lung carcinoma [1]; paclitaxel 10 mg/kg): 13% | Tumor weight (real weight) (Lewis lung carcinoma [1]; paclitaxel 10 mg/kg): 410 ± 90 mg | CTW (estimated weight) (Lewis lung carcinoma [1]; paclitaxel 20 mg/kg): 510 ± 274 mg | T/C (estimated weight) (Lewis lung carcinoma [1]; paclitaxel 20 mg/kg): 73% | T/C (real weight) (Lewis lung carcinoma [1]; paclitaxel 20 mg/kg): 91% | TGI (estimated weight) (Lewis lung carcinoma [1]; paclitaxel 20 mg/kg): 27% | TGI (real weight) (Lewis lung carcinoma [1]; paclitaxel 20 mg/kg): 9% | Tumor weight (real weight) (Lewis lung carcinoma [1]; paclitaxel 20 mg/kg): 420 ± 350 mg | CTW (estimated weight) (Lewis lung carcinoma [1]; paclitaxel 30 mg/kg): 446 ± 118^c,d mg | T/C (estimated weight) (Lewis lung carcinoma [1]; paclitaxel 30 mg/kg): 64% | T/C (real weight) (Lewis lung carcinoma [1]; paclitaxel 30 mg/kg): 81% | TGI (real weight) (Lewis lung carcinoma [1]; paclitaxel 30 mg/kg): 19% | Tumor weight (real weight) (Lewis lung carcinoma [1]; paclitaxel 30 mg/kg): 380 ± 200 mg | effect on tumor growth (in words) (Lewis lung carcinoma [1]; paclitaxel 10 and 20 mg/kg alone): do not inhibit significantly tumor growth | Potentiating activity MDA [2]: (3) (Moderate: 0.5 < CI < 0.8 at IC50) | Potentiating activity DLD-1 (DLD-1 (colon cancer)): (2) (High: CI below 0.5 at IC50) | Potentiating activity PA-1 (PA-1 (ovary cancer)): (2) (High: CI < 0.5 to IC50) | Potentiating activity MCF-7 (MCF-7 (breast cancer)): (1) (Very High: CI equal or below 1 at IC20 and Cl below 0.6 to IC50) | Potentiating activity A-549 (A-549 (lung cancer)): (3) (Moderate: 0.5 < CI < 0.8 at IC50) | Potentiating activity Panc 05.04 [3]: Potentiating > IC80 | Potentiating activity MEL-2 (MEL-2 (human melanoma)): (3) (Moderate: 0.5 < CI < 0.8 to IC50) | Potentiating activity B16 (B16 (murine melanoma)): (1) (Very High: potentiating or additive activity to IC20 and CI < 0.6 to IC50) | Potentiating activity U-251 [4]: (1) (Very High: potentiating or additive activity to IC20 and CI < 0.6 to IC50) | Potentiating activity GL-261 [5]: (2) (High: CI < 0.5 to IC50)

CC(=O)O[C@@]12CO[C@@H]1C[C@H](O)[C@@]1(C)C(=O)[C@H](O)C3=C(C)[C@@H](OC(=O)[C@H](O)[C@@H](NC(=O)OC(C)(C)C)c4ccccc4)C[C@@](O)([C@@H](OC(=O)c4ccccc4)[C@H]21)C3(C)C [Taxotere ™, docetaxel]
CTW (Lewis lung carcinoma [6]; Taxotere 5 mg/kg): 380 ± 116 mg | T/C (Lewis lung carcinoma [6]; Taxotere 5 mg/kg): 89% | TGI (Lewis lung carcinoma [6]; Taxotere 5 mg/kg): 11% | TGI (Lewis lung carcinoma [6]; Taxotere 5 mg/kg, listed as Taxotere™): about 11% | CTW (Lewis lung carcinoma [6]; Taxotere 10 mg/kg): 346 ± 107 mg | T/C (Lewis lung carcinoma [6]; Taxotere 10 mg/kg): 81% | TGI (Lewis lung carcinoma [6]; Taxotere 10 mg/kg): 19% | CTW (Lewis lung carcinoma [6]; Taxotere 15 mg/kg): 178 ± 112^c mg | T/C (Lewis lung carcinoma [6]; Taxotere 15 mg/kg): 42% | TGI (Lewis lung carcinoma [6]; Taxotere 15 mg/kg): 58% | TGI (Lewis lung carcinoma [6]; Taxotere 15 mg/kg, listed as Taxotere™): about 58% | Potentiating activity Panc 05.04 [3]: Potentiating > IC10 | loss of weight (day 7) with regard to the initial weight (day 1) ([7]; Taxotere 5 mg/kg): about 0.55% | Loss of weight > 20% (n = 10) ([7]; Taxotere 5 mg/kg): 0 | loss of weight (day 7) with regard to the initial weight (day 1) ([7]; Taxotere 10 mg/kg): ~3.33% | Loss of weight > 20% (n = 10) ([7]; Taxotere 10 mg/kg): 0 | loss of weight (day 7) with regard to the initial weight (day 1) ([7]; Taxotere 15 mg/kg): about 13% | Loss of weight > 20% (n = 10) ([7]; Taxotere 15 mg/kg): 7
